Patent US12358918B2, “Aryl hydrocarbon receptor (AHR) activator compounds as cancer therapeutics” (THE BROAD INSTITUTE, INC., priority 2018, dated 2025)
pIC50: −log10 of the molar value.

Tests used:
[1] = tested on: MDA-MB-468 breast cancer cells; test: Western immunoblot of treated cells over 24 hours; format: cell-based; settings: FIG. 18
Description: Adherent cells were washed once with cold 1×PBS (Corning #01018002) and lysed with RIPA buffer (Sigma #R0278) supplemented by protease and phosphatase inhibitors (Sigma). Protein content was quantified using the DC Protein Assay (BioRad #5000111). Samples were reduced with (loading buffer) and boiled at 95° C. before being resolved by SDS gel electrophoresis on 4-20% Tris/glycine gels (Invitrogen). Proteins were transferred using the IBlot2 (Thermo #IB21001) onto the iBlot™ 2 nitrocellulose Transfer Stacks (Thermo #IB23001). The membranes were then blocked in Odyssey Blocking Buffer (Li-COR #927-40000) for one hour, and then probed overnight with primary antibodies diluted in blocking buffer. The following day, membranes were washed 3×5 mins with 1×TBST and then probed with LiCOR Infrared secondary antibodies for 1 hour at room temperature. Membranes were washed an additional 3×5 mins in 1×TBST and then imaged using the LiCOR Imager. […]

[2] = biological target: recombinant human Adenosine A2A (FAST-002C) receptor (Homo sapiens, UniProt P29274); test: cAMP HTRF assay, Adenosine A2A receptor, antagonist mode; format: cell-based
Chain of recombinant human Adenosine A2A (FAST-002C) receptor (P29274 whole entry): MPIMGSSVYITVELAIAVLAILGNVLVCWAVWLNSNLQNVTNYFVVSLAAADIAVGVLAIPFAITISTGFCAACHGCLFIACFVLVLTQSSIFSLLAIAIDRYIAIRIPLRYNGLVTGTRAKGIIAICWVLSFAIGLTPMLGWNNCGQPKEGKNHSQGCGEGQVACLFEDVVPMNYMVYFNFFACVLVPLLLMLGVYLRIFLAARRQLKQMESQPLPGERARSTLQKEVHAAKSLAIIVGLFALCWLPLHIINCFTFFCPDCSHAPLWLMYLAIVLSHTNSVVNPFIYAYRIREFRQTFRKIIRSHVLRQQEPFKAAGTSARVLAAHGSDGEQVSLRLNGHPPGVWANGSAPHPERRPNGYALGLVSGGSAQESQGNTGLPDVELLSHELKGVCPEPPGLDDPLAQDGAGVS

[3] = tested on: MDA-MB-231 breast cancer cell lines; test: cytotoxicity, control cells vs cells overexpressing CYP1A1; format: cell-based
Source text: The dependence of each compound's cytotoxic effects upon CYP1A1 was also examined, via screening of MDA-MB-231 breast cancer cell lines for cytotoxic response. The CYP1A1-dependence of the cytotoxic response of to each tested compound was specifically determined by comparing the cytotoxicity of each compound administered to control cells with that of the compound administered to corresponding cells that overexpressed CYP1A1. […]

[4] = biological target: T1, recombinant human Adenosine A2B (FAST-003C) receptor (Homo sapiens, UniProt P29275); test: cAMP HTRF assay, Adenosine A2B receptor, antagonist mode; design: inhibition: dose or concentration left out as unconfirmed
T1 sequence (P29275 1-332): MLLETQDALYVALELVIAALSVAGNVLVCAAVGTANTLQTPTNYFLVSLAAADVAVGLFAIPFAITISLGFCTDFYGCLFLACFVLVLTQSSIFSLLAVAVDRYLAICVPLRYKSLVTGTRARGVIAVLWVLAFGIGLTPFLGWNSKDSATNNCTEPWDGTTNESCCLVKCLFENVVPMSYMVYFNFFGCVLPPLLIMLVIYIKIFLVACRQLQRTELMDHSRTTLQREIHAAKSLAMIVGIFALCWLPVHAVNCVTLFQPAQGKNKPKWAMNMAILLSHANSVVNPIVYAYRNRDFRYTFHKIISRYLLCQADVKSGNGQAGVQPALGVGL

[5] = biological target: T2, recombinant human Adenosine A3 (FAST-004C) receptor (Homo sapiens, UniProt P0DMS8); test: cAMP HTRF assay, Adenosine A3 receptor, antagonist mode; format: cell-based
T2 sequence (P0DMS8 1-318): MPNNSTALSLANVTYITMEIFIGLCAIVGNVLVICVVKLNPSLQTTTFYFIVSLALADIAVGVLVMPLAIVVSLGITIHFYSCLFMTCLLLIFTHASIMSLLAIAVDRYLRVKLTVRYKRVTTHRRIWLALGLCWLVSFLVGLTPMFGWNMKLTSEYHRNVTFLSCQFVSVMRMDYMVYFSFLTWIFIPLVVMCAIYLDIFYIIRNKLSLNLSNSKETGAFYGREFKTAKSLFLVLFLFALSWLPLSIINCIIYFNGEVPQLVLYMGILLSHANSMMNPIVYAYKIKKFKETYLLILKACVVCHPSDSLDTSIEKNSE

[6] = tested on: MDA-MB-468 and ZR-75-1 cell lines; settings: AHR sg3 / AHR sg4 knockout vs GFP sg1 or parental Cas9; FIGS. 13A and 13B
[7] = tested on: Twelve different breast cancer cell lines; test: adenosine receptor antagonists and agonists dosed on twelve breast cancer cell lines; format: cell-based; settings: 32 adenosine receptor antagonists/agonists compared; FIG. 6B
[8] = tested on: MDA-MB-468 and ZR51 breast cancer and JHH7 liver cancer cell lines
[9] = tested on: ZR-75-1 and MDA-MB-468 cells harboring an AGR2 knockout; settings: CRISPR-Cas9 AGR2 knockout; FIGS. 10A-10D
[10] = HEK293, read-out: % Inhibition Average at maximal concentration
[11] = antagonist mode dose-response fit

In the case of `Nc1nc2ccc(Cl)cc2c2nc(-c3ccco3)nn12` [CGS-15943, reference compound], the CYP1A1 expression ([1]; 24 hour time course) was “induced CYP1A1 expression”, the FOXA1 levels ([1]; 24 hour time course) was “maintenance of FOXA1 levels” and the “DNA double stranded breaks (pH2A.X) and PARP cleavage” value ([1]; within 24 hours) was “induced DNA double stranded breaks and PARP cleavage”. For the same molecule, the inhibition at 10 µM [2, 10] was 125%, the “Hill Coefficient” value [2, 11] was 1.25 and the “CYP1A1-dependence of the cytotoxic response” value [3] was “CYP1A1-dependent cytotoxic”. For the same molecule, the inhibition [4, 10] was 120%, the “Hill Coefficient” value [4, 11] was 1.75 and the inhibition at 10 µM ([5]; CHO-K1, read-out: % Inhibition Average at maximal concentration) was 68.9%. The “Hill Coefficient” value [5, 11] was 1.66, the pIC50 ([5]; antagonist mode, CHO-K1, reference agonist IB-MECA) was 5.68 and the “dependence of cytotoxic activity on AHR” value [6] was “required intact AHR expression”. For the same molecule, the “cytotoxicity to breast cancer cell lines” value [7] was “cytotoxic”, the “AHR-dependence of the cytotoxic response” value [8] was “dependence upon AHR” and the “rescue of cytotoxicity by AGR2 knockout” value [9] was “not rescued by AGR2 knockout”.
